Data from patent US11771711B2, “Substituted pyridines as DNMT1 inhibitors” (GlaxoSmithKline Intellectual Property Development Limited, priority 2021, dated 2023).
pIC50: −log10 of the molar value. In brackets after ≈: the same amount, converted by molar mass. Each block holds one compound with its values, some of them ahead of it.

Key:
[1] = molecular target: Human truncated DNMT1(601-1600) (Homo sapiens (Human), UniProt P26358); assay: DNMT1 Scintillation Proximity Assay (SPA) - Assay B; type: biochemical; conditions: footnote b: DNMT1 truncate
Chain of Human truncated DNMT1(601-1600) (P26358 601-1600): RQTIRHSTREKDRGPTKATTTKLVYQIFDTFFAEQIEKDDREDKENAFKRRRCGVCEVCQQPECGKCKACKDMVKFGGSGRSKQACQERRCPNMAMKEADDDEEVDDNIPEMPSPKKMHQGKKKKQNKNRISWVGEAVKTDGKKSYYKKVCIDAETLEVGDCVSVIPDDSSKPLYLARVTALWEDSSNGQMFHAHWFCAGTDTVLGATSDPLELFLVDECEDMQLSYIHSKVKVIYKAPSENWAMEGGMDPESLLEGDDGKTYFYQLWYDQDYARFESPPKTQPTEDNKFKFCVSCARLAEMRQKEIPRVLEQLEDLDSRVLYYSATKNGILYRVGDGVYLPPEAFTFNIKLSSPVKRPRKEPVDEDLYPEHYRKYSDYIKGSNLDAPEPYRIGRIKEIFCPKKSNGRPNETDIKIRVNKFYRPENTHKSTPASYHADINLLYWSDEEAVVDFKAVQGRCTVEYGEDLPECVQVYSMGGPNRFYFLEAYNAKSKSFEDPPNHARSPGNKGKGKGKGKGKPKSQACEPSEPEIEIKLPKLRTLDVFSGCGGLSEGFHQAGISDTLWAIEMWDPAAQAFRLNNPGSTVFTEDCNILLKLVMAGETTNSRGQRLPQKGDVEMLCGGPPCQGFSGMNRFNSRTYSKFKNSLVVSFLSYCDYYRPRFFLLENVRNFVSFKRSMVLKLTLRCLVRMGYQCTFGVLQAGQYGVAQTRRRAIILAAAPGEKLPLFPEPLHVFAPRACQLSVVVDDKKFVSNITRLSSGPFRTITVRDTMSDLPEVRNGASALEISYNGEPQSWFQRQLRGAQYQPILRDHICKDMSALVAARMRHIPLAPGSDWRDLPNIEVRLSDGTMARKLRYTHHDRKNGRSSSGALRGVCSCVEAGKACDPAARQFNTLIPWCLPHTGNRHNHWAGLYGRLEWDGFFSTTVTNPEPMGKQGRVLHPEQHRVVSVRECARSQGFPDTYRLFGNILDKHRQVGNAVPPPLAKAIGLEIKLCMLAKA
Procedure: DNMT1 Scintillation Proximity Assay (SPA)—Assay B (Human Truncated DNMT1(601-1600))
This assay used Scintillation Proximity technology in a signal increase format to evaluate the potency of compounds. Human truncated DNMT1(601-1600), single hemi-methylated CpG site oligonucleotide, and Tritiated SAM were utilized to monitor activity. Assay plate creation consisted of the following parameters: 10 mM Compounds (11-point, 3-fold serial dilution) were stamped at 100 nL per well (100× in 100% DMSO) into a Griener white LV 384 well plate (#784075). Assay buffer mix was made on the day of assay consisting of: base buffer: (500 mM Hepes, ph 8, 1M MgCl2 made in advance, stored at room temp as a stock), 10% NP40-Surfact AMPS, 10% Ultrapure BSA 50 mg/ml, and 2M DTT (DL-Dithiolthreitol). The 2× enzyme mix was then prepared consisting of: DNMT1 protein (truncate human DNMT1—601-1600, made in house at 16.876 uM stock concentration) added to the assay buffer mix. […] Plates were read on a Viewlux (PerkinElmer, 613 nm emission filter, 300 sec dual-exposure, (10 min. total read time)).
The Abase database was used to analyze the data. […] Dose-response curves were analyzed using a four-parameter logistic fit and results were expressed as pIC50 values. […]

physchem = conditions: FaSSIF buffer, pH 6.5, fassif, thermodynamic from solid
Procedure: Solubility of Solid Compounds in Fasted Simulated Intestinal Fluid
The solubility of solid compounds in Fasted Simulated Intestinal Fluid (FaSSIF) was determined at pH 6.5 after 4 hour equilibration at room temperature (using procedures described in Sou, T.; Bergström, C. A. S. Automated assays for thermodynamic (equilibrium) solubility determination. Drug Discovery Today: Technologies 2018, 27, 11-19). 1 ml of FaSSIF buffer (3 mM Sodium taurocholate, 0.75 mM lecithin in sodium phosphate buffer at pH6.5) was added to manually weighed 1 mg of solid compound in a 4 ml vial. The resulting suspension was shaken at 900 rpm for 4 hours at room temperature and then transferred to a Multiscreen HTS, 96-well solubility filter plate to separate the residual solid and the filtrate. Quantification of the compound concentration in the filtrate was performed by HPLC-UV using single point calibration of a known concentration of the compound in DMSO. […] The dynamic range of the assay was 1-1000 μg/ml.

[2] = internal standards tested alongside in FaSSIF assay; cited from earlier work
Full-length human DNMT1 = Full-length human DNMT1 (Homo sapiens (Human), UniProt P26358); assay: DNMT1 Scintillation Proximity Assay (SPA) - Assay A; type: biochemical; conditions: footnote a: DNMT1 full length
Chain of Full-length human DNMT1 (P26358 whole entry): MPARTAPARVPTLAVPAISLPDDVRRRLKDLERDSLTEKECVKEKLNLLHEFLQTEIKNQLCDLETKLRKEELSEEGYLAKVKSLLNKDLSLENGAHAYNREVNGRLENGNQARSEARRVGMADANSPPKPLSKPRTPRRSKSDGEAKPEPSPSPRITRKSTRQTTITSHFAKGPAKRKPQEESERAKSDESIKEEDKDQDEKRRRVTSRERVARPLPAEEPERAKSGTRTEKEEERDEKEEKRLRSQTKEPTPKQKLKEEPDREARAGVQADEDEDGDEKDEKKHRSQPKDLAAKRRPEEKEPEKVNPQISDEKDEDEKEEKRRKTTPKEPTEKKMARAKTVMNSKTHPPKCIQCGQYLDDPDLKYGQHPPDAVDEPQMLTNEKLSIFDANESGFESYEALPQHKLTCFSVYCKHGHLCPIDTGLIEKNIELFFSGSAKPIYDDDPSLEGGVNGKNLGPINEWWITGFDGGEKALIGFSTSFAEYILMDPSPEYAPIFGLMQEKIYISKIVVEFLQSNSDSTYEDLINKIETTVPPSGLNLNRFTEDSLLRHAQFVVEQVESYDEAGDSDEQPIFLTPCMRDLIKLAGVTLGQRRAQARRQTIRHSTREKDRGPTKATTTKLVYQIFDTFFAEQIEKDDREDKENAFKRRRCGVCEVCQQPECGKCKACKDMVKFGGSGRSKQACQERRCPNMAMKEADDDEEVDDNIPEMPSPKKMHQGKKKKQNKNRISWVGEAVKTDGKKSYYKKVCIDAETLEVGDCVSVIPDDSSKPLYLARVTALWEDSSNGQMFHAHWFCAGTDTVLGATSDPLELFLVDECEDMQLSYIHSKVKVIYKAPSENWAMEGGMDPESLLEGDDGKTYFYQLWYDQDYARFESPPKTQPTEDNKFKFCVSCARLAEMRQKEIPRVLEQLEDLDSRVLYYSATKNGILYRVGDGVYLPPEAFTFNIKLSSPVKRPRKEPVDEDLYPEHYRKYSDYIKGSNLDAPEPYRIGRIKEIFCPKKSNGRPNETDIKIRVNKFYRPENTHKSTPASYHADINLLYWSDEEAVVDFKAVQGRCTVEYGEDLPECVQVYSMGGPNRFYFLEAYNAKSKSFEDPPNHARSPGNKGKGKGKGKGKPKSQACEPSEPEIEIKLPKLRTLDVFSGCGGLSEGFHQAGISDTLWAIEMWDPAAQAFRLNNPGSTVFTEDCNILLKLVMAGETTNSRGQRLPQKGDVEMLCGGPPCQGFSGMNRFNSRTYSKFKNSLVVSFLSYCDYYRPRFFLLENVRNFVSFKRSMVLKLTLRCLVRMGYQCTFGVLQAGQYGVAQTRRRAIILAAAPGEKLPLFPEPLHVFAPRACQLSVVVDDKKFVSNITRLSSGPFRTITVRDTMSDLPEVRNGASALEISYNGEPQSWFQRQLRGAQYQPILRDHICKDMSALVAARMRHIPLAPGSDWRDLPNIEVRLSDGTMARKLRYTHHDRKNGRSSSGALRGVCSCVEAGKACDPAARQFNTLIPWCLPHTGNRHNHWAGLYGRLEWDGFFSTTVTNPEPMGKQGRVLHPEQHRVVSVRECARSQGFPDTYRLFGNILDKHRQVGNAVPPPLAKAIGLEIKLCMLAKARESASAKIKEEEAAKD
Procedure: DNMT1 Scintillation Proximity Assay (SPA)—Assay A (Full-Length Human DNMT1)
This assay used Scintillation Proximity technology in a signal increase format to evaluate the potency of compounds. Full-length human DNMT1, hemi-methylated DNA duplex*, and tritiated SAM were utilized to monitor activity. Assay plate creation consisted of the following parameters: 500 nL of an 11 pt, 3-fold serial dilution of compound was stamped into a 96 well Costar plate (#3884). Assay buffer mix was made on the day of assay consisting of: 20 mM Tris pH 7.5, 1 mM DTT, 1 mM EDTA, and 5% glycerol. A 2× enzyme mix was then prepared consisting of 30 nM DNMT1 protein (full length human DNMT, made in house) in assay buffer. The 2× substrate mix was made last, and consisted of 160 nM 40mer hemi-methylated DNA*, 0.48 μM ^3H-SAM, and 2.92 μM cold SAM in assay buffer (^3H-SAM is added last). The quench (1 mM SAH) was made in bulk and frozen at −20 until the time of use. Ten uL of the 2× substrate mix was added to the entire plate using a multichannel electronic pipette. Plate was shaken for at least 10s between additions to ensure mixing. Next, 20 uL of 2× quench mix was added to column 12 using a multichannel pipette (shake plate). Using a multichannel electronic pipette, 10 uL of 2× enzyme mix was added to the full plate starting with column […] (column 12 last to avoid pre-quench carryover). Plates were incubated on the shaker for 30 minutes with the plate covered. At the end of the incubation period, 20 uL of quench mix were added to all wells except column 12 (shake plate) followed by the addition of 20 uL of 3 mg/mL PerkinElmer PEI PVT SPA Beads (Cat. #RPNQ0097) diluted in DNAse free water and allowed to shake for at least 30 minutes. Plates were sealed with a clear seal and centrifuged at 500 rpm for 1 min. Plates were read on a MicroBeta (Perkin Elmer, read for ^3H (1 min/well).
Microsoft Excel was used to analyze the data up to Vi/Vo and GraFit was used to fit the data. Responses were normalized to the uninhibited (DMSO) and pre-quenched controls within each plate. Dose-response curves were analyzed using a three-parameter logistic fit with Ymin constrained to 0 and results were expressed as IC50 values.
Final assay conditions: 20 mM Tris (Hampton Research—HR-937-06), pH 7.5, 1 mM DTT (Invitrogen—P2325), 1 mM EDTA (Invitrogen—AM9260G), 5% Glycerol (Teknova—G1796), 0.02% Pluronic F127 (Life Technologies—P6866), 15 nM DNMT1 (full length human DNMT1—GSK made in-house), 240 nM ^3H-SAM (PerkinElmer—NET155H001MC), 1460 nM cold SAM (New England Biolabs—B9003S) and 80 nM 40-mer hemi-methylated DNA Oligonucleotide (Integrated DNA Technologies—custom), 1 mM SAH (Sigma A9384), and 1 mg/mL PEI PVT SPA Beads (Perkin Elmer RPNQ0097) resuspended in water.

[3] = Rat pharmacokinetic study (oral bioavailability); type: in vivo; conditions: blood, PO gavage vs 60 minute IV infusion, 5% DMA/15% Solutol
Procedure: Pharmacokinetic Studies: All studies were conducted in accordance with the GSK Policy on the Care, Welfare and Treatment of Laboratory Animals and were reviewed either by the Institutional Animal Care and Use Committee at GSK or by the ethical review process at the institution where the studies were performed. Pharmacokinetic studies for example 2 were conducted using non-fasted, Male Wistar Han rats, n=3/dose route and for reference compound 4, non-fasted male Sprague-Dawley rats, n=2/dose route in a non-crossover design. Compounds were prepared as solutions in 5% DMA/15% Solutol and administered as a 60 minute IV infusion and PO gavage. Blood samples were collected serially at multiple time points from pre-dose through 24 hours post dose and the analytes were quantified by LC/MS/MS. The percent bioavailability was calculated by comparison of the dose normalized Area Under the Curve (DNAUC) obtained from PO dosing with the DNAUC from the IV route [(PO DNAUC/IV DNAUC)*100].

Compound: CCc1c(C#N)c(S[C@@H](C(N)=O)c2ccccc2)nc(N(C)C)c1C#N [Reference compound 1, reference compound]
solubility at 4 h (physchem): < 1 µg/mL

Compound: CC(=O)CC(c1ccccc1)c1c(O)c2ccccc2oc1=O (stereo not drawn) [Warfarin]
known solubility of internal standards [2]: 140 µg/mL

Compound: CCc1c(C#N)c(S[C@@H](C(N)=O)c2ccccc2)nc(N2CC[C@H](O)C2)c1C#N [Reference compound 2, reference compound]
pIC50 (Full-length human DNMT1): 6.81
solubility at 4 h (physchem): 2.7 µg/mL (≈ 6.63 µM)

Compound: CCc1c(C#N)c(S[C@@H](C(N)=O)c2ccc(OC)cc2)nc(N2CC[C@H](O)C2)c1C#N [Reference compound 4, reference compound]
pIC50 [1]: 7.10
bioavailability ([3]; non-fasted male Sprague-Dawley rats, n=2/dose route): 6.1%
solubility at 4 h (physchem): 4 µg/mL (≈ 9.14 µM)

Next, values leading:

pIC50 [1]: 6.20
Compound: CCc1c(C#N)c(SC(C(N)=O)c2ccc(Cl)cc2)nc(N(C)C)c1C#N (stereo not drawn) [Reference compound 3]

pIC50 (Full-length human DNMT1): 5.28
solubility at 4 h (physchem): > 1000 µg/mL
Compound: CCc1c(C#N)c(SC(C(=O)NP(=O)(O)O)c2ccc(OS(C)(=O)=O)cc2)nc(N(C)C)c1C#N (stereo not drawn) [Example 3, (2-((3,5-dicyano-6-(dimethylamino)-4-ethylpyridin-2-yl)thio)-2-(4-((methylsulfonyl)oxy)phenyl)acetyl)phosphoramidic acid]

pIC50 (Full-length human DNMT1): 6.97
solubility at 4 h (physchem): < 1 µg/mL
Compound: CCc1c(C#N)c(SC(C(N)=O)c2ccc(OS(C)(=O)=O)cc2)nc(N(C)C)c1C#N (racemic) [Example 4, 4-(2-amino-1-((3,5-dicyano-6-(dimethylamino)-4-ethylpyridin-2-yl)thio)-2-oxoethyl)phenyl methanesulfonate]

pIC50 (Full-length human DNMT1): 7.27
bioavailability ([3]; non-fasted male Wistar Han rats, n=3/dose route): 40%
solubility at 4 h (physchem): 1 µg/mL
Compound: CCc1c(C#N)c(S[C@@H](C(N)=O)c2ccc(OS(C)(=O)=O)cc2)nc(N(C)C)c1C#N [Example 2, (R)-4-(2-amino-1-((3,5-dicyano-6-(dimethylamino)-4-ethylpyridin-2-yl)thio)-2-oxoethyl)phenyl methanesulfonate]
